Values after ≈ are worked out from the molar mass of the structure shown. Positions of bridges follow the written chain, without caps; N, C: chain ends. Non-standard residues stand in square brackets, D forms with d. Residues, ends and D or L forms follow the SMILES beside them. *: point of attachment. Heptanoyl(6-Me) = CC(C)CCCCC(=O)*; Dab = NCC[C@H](N)C(=O)O
System: E. coli DSM 1116
Format: cell-based, Escherichia coli
Details: Table 1; without elastase; broth dilution, T-medium, 5-6 x 10^5 CFU, 37 °C, OD600 readout
Description: min at rt, and blood smears were prepared on microscopy slides that were air-dried in the dark. Phase contrast and fluorescence (485/520 nm) microscopy pictures were captured with a Zeiss Axiovert with a 40× APO 1.4 lens. For quantification of fluorescence, pictures were analyzed by using ImageJ (v1.52).
Outlines were drawn around each cell and circularity, area and mean fluorescence were determined.
In addition, several background readings were taken at empty areas. Total corrected cellular fluorescence (TCCF) = integrated density – (area of selected cell × mean fluorescence of background readings), was calculated for 200 bacteria for each assay.
Determination of antibacterial activities by broth dilution assay […]
External neutrophil elastase was added at 10 mU/ml or 100 mU/ml to each well at the start of incubation, where indicated. […] OD600 was then determined in a microplate reader. […]
Quantification of 1, 6 and 7
To 50 µl samples 50 µl acetic acid were added and the samples were filtered through 10 kDa ultrafiltration columns (Amicon Ultra 0.5 ml, Millipore) by centrifugation for 60 min at 14.000 x g and 4 °C. […] Colistin was quantified on a Q-Trap 6500 HPLC-MS with samples of 5 µl each as described above. […]

CC(C)CCCCC(=O)N[C@@H](CCN)C(=O)N[C@H](C(=O)N[C@@H](CCN)C(=O)N[C@H]1CCNC(=O)[C@H]([C@@H](C)O)NC(=O)[C@H](CCN)NC(=O)[C@H](CCN)NC(=O)[C@H](CC(C)C)NC(=O)[C@@H](CC(C)C)NC(=O)[C@H](CCN)NC1=O)[C@@H](C)O [Compound 1, colistin B, reference compound] ({Heptanoyl(6-Me)}-[Dab]T[Dab][Dab][Dab][dL]L[Dab][Dab]T; lactam 4-C)
MIC, E. coli DSM 1116: 0.063 µM (≈ 0.0728 µg/mL)

Source: publication PMC8456958, “Selective Bacterial Targeting and Infection‐Triggered Release of Antibiotic Colistin Conjugates” (Angewandte Chemie (International Ed. in English), 2021)
